Measurements taken from patent US9012461B2, “FAK inhibitors” (priority 2011, dated 2015).
pIC50: −log10 of the molar value.

Assays:
MDA-231-LNA cells = settings: 3 days
[1] = tested on: taxane-sensitive (SKOV3ip1 and HeyA8) and taxane-resistant (HeyA8-MDR) ovarian cancer cell lines; settings: in vitro; cited from earlier work
[2] = tested on: HeyA8, SKOV3ip1, and HeyA8-MDR models; settings: compared with vehicle-treated controls; cited from earlier work
[3] = tested on: MDA-231-LNA primary tumours; assay: Combination study, MDA-231-LNA orthotopic xenograft model; format: in vivo, Balb/c SCID mice; settings: Avastin 12.5 mg/kg i.p. twice weekly; compound 16 (citrate salt) p.o. 54 mg/kg BID
Text: Mice harvested for tumour immunohistochemical analysis were not included in Kaplan-Meier analysis.
All bars represent the mean±S.E.M of n=7 mice per group. *p<0.05 and **p<0.01 by one-way ANOVA.

Molecule	pIC50 (MDA-231-LNA cells)	also measured
NC(=O)Cc1cccnc1CCc1nc(Nc2ccc(C3CCNCC3)cc2)ncc1C(F)(F)F [Compound 32, 2-(2-(2-(2-((4-(Piperidin-4-yl)phenyl)amino)-5-(trifluoromethyl)pyrimidin-4-yl)ethyl)pyridin-3-yl)acetamide]	< 5.30	
NC(=O)Cc1ccccc1CCc1nc(Nc2ccc(C3CCNC3)cc2)ncc1C(F)(F)F (stereo not drawn) [Compound 35, 2-(2-(2-(2-((4-(pyrrolidin-3-yl)phenyl)amino)-5-(trifluoromethyl)pyrimidin-4-yl)ethyl)phenyl)acetamide]	< 5.00	
CCN1CCC(c2ccc(Nc3ncc(C(F)(F)F)c(CCc4ncccc4CC(N)=O)n3)cc2)CC1 [Compound 38, 2-(2-(2-(2-((4-(1-Ethylpiperidin-4-yl)phenyl)amino)-5-(trifluoromethyl)pyrimidin-4-yl)ethyl)pyridin-3-yl)acetamide]	< 5.00	
CNC(=O)c1ccccc1Nc1nc(Nc2ccc(N3CCOCC3)cc2OC)ncc1Cl [TAE226]		phosphorylation of FAK [1]: inhibited the phosphorylation of FAK at both Y397 and Y861 sites; reduction of tumour burden [2]: 46-64%
Avastin		median survival time [3]: 24 days
